Patent US8778881B2 (priority 2004, dated 2014)
Numbered stars: 1 amine (or outer) side, 2 acyl side, 3 side chain; on linkers, the order of the positions; unused ones are H or OH. Bridge positions count the residues as written; N and C are the ends. Square brackets hold non-standard residues; d marks the D form. Peptide text beside a SMILES is read from it. * marks the point of attachment. Orn(Me) = CN(CCC[C@H](N[*:1])C(=O)[*:2])[*:3]; Ala(2-furyl) = N[C@@H](Cc1ccco1)C(=O)O; Orn(iPr) = CC(C)NCCC[C@H](N)C(=O)O; X1 = CCNCCC[C@H](N[*:1])C(=O)[*:2]; 2Pal = N[C@@H](Cc1ccccn1)C(=O)O; 3Pal = N[C@@H](Cc1cccnc1)C(=O)O; 4Pal = N[C@@H](Cc1ccncc1)C(=O)O; 2Thi = N[C@@H](Cc1cccs1)C(=O)O; 3Thi = N[C@@H](Cc1ccsc1)C(=O)O; Aad = N[C@@H](CCCC(=O)O)C(=O)O; NHCH(CH2OH)2 = OCC(CO)N*; Orn = NCCC[C@H](N)C(=O)O; Dab = NCC[C@H](N)C(=O)O; NHiBu = CC(C)CN*; NHOH = ON*

Target: T1, human oxytocin (hOT) receptor (Homo sapiens, UniProt P30559)
T1 construct: expressed in transfected cells
T1 sequence (P30559 1-389): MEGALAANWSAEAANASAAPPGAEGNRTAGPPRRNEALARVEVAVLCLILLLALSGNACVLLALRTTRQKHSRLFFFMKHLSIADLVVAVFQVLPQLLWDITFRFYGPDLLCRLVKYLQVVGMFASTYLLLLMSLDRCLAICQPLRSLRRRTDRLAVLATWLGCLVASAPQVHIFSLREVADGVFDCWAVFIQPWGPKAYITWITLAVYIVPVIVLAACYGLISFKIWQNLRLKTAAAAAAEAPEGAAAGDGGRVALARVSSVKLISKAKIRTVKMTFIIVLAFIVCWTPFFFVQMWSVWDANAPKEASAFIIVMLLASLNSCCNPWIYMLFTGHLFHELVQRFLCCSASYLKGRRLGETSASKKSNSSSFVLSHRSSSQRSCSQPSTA
Test: luciferase-based transcriptional reporter assay expressing the human oxytocin (hOT) receptor, for selectivity
Type: cell-based
Settings: not given
Method: Agonist activity of compounds on the hV1a receptor was determined in a transcriptional reporter assay by transiently transfecting a hV1a receptor expression DNA into HEK-293 cells in concert with a reporter DNA containing intracellular calcium responsive promoter elements regulating expression of firefly luciferase. See Boss, V., Talpade, D. J., Murphy, T. J. J. Biol. Chem. 1996, May 3; 271(18), 10429-10432 for further guidance on this assay. […] To determine selectivity, compounds were tested in luciferase-based transcriptional reporter assays expressing the human oxytocin (hOT) receptor. Assays for other receptors (hV2, hV1b, rat V1a and rat V2) were also conducted.
The EC50 value given is the geometric mean expressed in nanomol/L (nM). Selectivity values are given as EC50 ratios.

SMILES	selectivity hOT/hV1a (class symbol)
CC[C@H](C)[C@@H]1NC(=O)[C@H](Cc2ccco2)NC(=O)[C@@H](N)CSSC[C@@H](C(=O)N2CCC[C@H]2C(=O)N[C@@H](CCCNC(C)C)C(=O)NCC(N)=O)NC(=O)[C@H](CC(N)=O)NC(=O)[C@H](CC(N)=O)NC1=O [Compound 42] (H-C[Ala(2-furyl)]INNCP[Orn(iPr)]G-NH2; disulfide 1-6)	+ (key: +: selective hV1a receptor agonist; EC50 hOT/hV1a ratio not determined due to very low agonist efficacy (<30% compared to AVP) at the hOT receptor)
CC[C@H](C)[C@@H]1NC(=O)[C@H](Cc2ccccn2)NC(=O)[C@@H](N)CSSC[C@@H](C(=O)N2CCC[C@H]2C(=O)N[C@@H](CCN)C(=O)NCC(N)=O)NC(=O)[C@H](CC(N)=O)NC(=O)[C@H](CCC(N)=O)NC1=O [Compound 17] (H-C[2Pal]IQNCP[Dab]G-NH2; disulfide 1-6)	+ (key: +: selective hV1a receptor agonist; EC50 hOT/hV1a ratio not determined due to very low agonist efficacy (<30% compared to AVP) at the hOT receptor)
CC[C@H](C)[C@@H]1NC(=O)[C@H](Cc2ccccc2)NC(=O)[C@@H](N)CSSC[C@@H](C(=O)N2CCC[C@H]2C(=O)N[C@@H](CCCN)C(=O)NCC(N)=O)NC(=O)[C@H](CC(N)=O)NC(=O)[C@H](CCCC(N)=O)NC1=O [Compound 9] (H-CFI[Aad](NH2)NCP[Orn]G-NH2; disulfide 1-6)	+ (key: +: selective hV1a receptor agonist; EC50 hOT/hV1a ratio not determined due to very low agonist efficacy (<30% compared to AVP) at the hOT receptor)
CC[C@H](C)[C@@H]1NC(=O)[C@H](Cc2ccncc2)NC(=O)[C@@H](N)CSSC[C@@H](C(=O)N2CCC[C@H]2C(=O)N[C@@H](CCN)C(=O)NCC(N)=O)NC(=O)[C@H](CC(N)=O)NC(=O)[C@H](CCC(N)=O)NC1=O [Compound 12] (H-C[4Pal]IQNCP[Dab]G-NH2; disulfide 1-6)	+ (key: +: selective hV1a receptor agonist; EC50 hOT/hV1a ratio not determined due to very low agonist efficacy (<30% compared to AVP) at the hOT receptor)

Same assay, conditions: agonist efficacy at the hOT receptor compared to AVP; ratio not determined

SMILES	selectivity hOT/hV1a (class symbol)
CC[C@H](C)[C@@H]1NC(=O)[C@H](Cc2cccs2)NC(=O)[C@@H](N)CSSC[C@@H](C(=O)N2CCC[C@H]2C(=O)N[C@@H](CCN)C(=O)NCC(N)=O)NC(=O)[C@H](CC(N)=O)NC(=O)[C@H](CC(N)=O)NC1=O [Compound 36] (H-C[2Thi]INNCP[Dab]G-NH2; disulfide 1-6; N-terminus and C-terminus assumed)	+ (selective hV1a receptor agonist; EC50 hOT/hV1a ratio not determined due to very low agonist efficacy (<30% compared to AVP) at the hOT receptor)
CC[C@H](C)[C@@H]1NC(=O)[C@H](Cc2cccnc2)NC(=O)[C@@H](N)CSSC[C@@H](C(=O)N2CCC[C@H]2C(=O)N[C@@H](CCN)C(=O)NCC(N)=O)NC(=O)[C@H](CC(N)=O)NC(=O)[C@H](CCC(N)=O)NC1=O [Compound 18] (H-C[3Pal]IQNCP[Dab]G-NH2; disulfide 1-6; N-terminus and C-terminus assumed)	+ (selective hV1a receptor agonist; EC50 hOT/hV1a ratio not determined due to very low agonist efficacy (<30% compared to AVP) at the hOT receptor)
CCNC(=O)CC[C@@H]1NC(=O)[C@H]([C@@H](C)CC)NC(=O)[C@H](Cc2ccccc2)NC(=O)[C@@H](N)CSSC[C@@H](C(=O)N2CCC[C@H]2C(=O)N[C@@H](CCCN)C(=O)NCC(N)=O)NC(=O)[C@H](CC(N)=O)NC1=O [Compound 20] (H-CFIE(NHEt)NCP[Orn]G-NH2; disulfide 1-6; N-terminus and C-terminus assumed)	+ (selective hV1a receptor agonist; EC50 hOT/hV1a ratio not determined due to very low agonist efficacy (<30% compared to AVP) at the hOT receptor)
CC[C@H](C)[C@@H]1NC(=O)[C@H](Cc2ccccc2)NC(=O)[C@@H](N)CSSC[C@@H](C(=O)N2CCC[C@H]2C(=O)N[C@@H](CCCN)C(=O)NCC(N)=O)NC(=O)[C@H](CC(N)=O)NC(=O)[C@H](CC(=O)NC(CO)CO)NC1=O [Compound 27] (H-CFID(NHCH(CH2OH)2)NCP[Orn]G-NH2; disulfide 1-6; N-terminus and C-terminus assumed)	+ (selective hV1a receptor agonist; EC50 hOT/hV1a ratio not determined due to very low agonist efficacy (<30% compared to AVP) at the hOT receptor)
CC[C@H](C)[C@@H]1NC(=O)[C@H](Cc2ccccc2)NC(=O)[C@@H](N)CSSC[C@@H](C(=O)N2CCC[C@H]2C(=O)N[C@@H](CCCN)C(=O)NCC(N)=O)NC(=O)[C@H](CC(N)=O)NC(=O)[C@H](CCC(=O)NCC(C)C)NC1=O [Compound 21] (H-CFIE(NHiBu)NCP[Orn]G-NH2; disulfide 1-6; N-terminus and C-terminus assumed)	+ (selective hV1a receptor agonist; EC50 hOT/hV1a ratio not determined due to very low agonist efficacy (<30% compared to AVP) at the hOT receptor)
CCNCCC[C@H](NC(=O)[C@@H]1CCCN1C(=O)[C@@H]1CSSC[C@H](N)C(=O)N[C@@H](Cc2ccccc2)C(=O)N[C@@H]([C@@H](C)CC)C(=O)N[C@@H](CC(N)=O)C(=O)N[C@@H](CC(N)=O)C(=O)N1)C(=O)NCC(N)=O [Compound 47] (H-CFINNCP[X1]G-NH2; disulfide 1-6; N-terminus and C-terminus assumed)	+ (selective hV1a receptor agonist; EC50 hOT/hV1a ratio not determined due to very low agonist efficacy (<30% compared to AVP) at the hOT receptor)
CCNC(=O)C[C@@H]1NC(=O)[C@H]([C@@H](C)CC)NC(=O)[C@H](Cc2ccccc2)NC(=O)[C@@H](N)CSSC[C@@H](C(=O)N2CCC[C@H]2C(=O)N[C@@H](CCCN)C(=O)NCC(N)=O)NC(=O)[C@H](CC(N)=O)NC1=O [Compound 48] (H-CFID(NHEt)NCP[Orn]G-NH2; disulfide 1-6; N-terminus and C-terminus assumed)	+ (selective hV1a receptor agonist; EC50 hOT/hV1a ratio not determined due to very low agonist efficacy (<30% compared to AVP) at the hOT receptor)
CC[C@H](C)[C@@H]1NC(=O)[C@H](Cc2ccccc2)NC(=O)[C@@H](N)CSSC[C@@H](C(=O)N2CCC[C@H]2C(=O)N[C@@H](CCCN)C(=O)NCC(N)=O)NC(=O)[C@H](CC(N)=O)NC(=O)[C@H](CC(=O)NC)NC1=O [Compound 49] (H-CFID(NHMe)NCP[Orn]G-NH2; disulfide 1-6; N-terminus and C-terminus assumed)	+ (selective hV1a receptor agonist; EC50 hOT/hV1a ratio not determined due to very low agonist efficacy (<30% compared to AVP) at the hOT receptor)
CC[C@H](C)[C@@H]1NC(=O)[C@H](Cc2ccsc2)NC(=O)[C@@H](N)CSSC[C@@H](C(=O)N2CCC[C@H]2C(=O)N[C@@H](CCCN)C(=O)NCC(N)=O)NC(=O)[C@H](CC(N)=O)NC(=O)[C@H](CC(N)=O)NC1=O [Compound 35] (H-C[3Thi]INNCP[Orn]G-NH2; disulfide 1-6; N-terminus and C-terminus assumed)	+ (selective hV1a receptor agonist; EC50 hOT/hV1a ratio not determined due to very low agonist efficacy (<30% compared to AVP) at the hOT receptor)
CC[C@H](C)[C@@H]1NC(=O)[C@H](Cc2ccccc2)NC(=O)[C@@H](N)CSSC[C@@H](C(=O)N2CCC[C@H]2C(=O)N[C@@H](CCCN)C(=O)NCC(N)=O)NC(=O)[C@H](CC(N)=O)NC(=O)[C@H](CC(=O)NO)NC1=O [Compound 24] (H-CFID(NHOH)NCP[Orn]G-NH2; disulfide 1-6; N-terminus and C-terminus assumed)	+ (selective hV1a receptor agonist; EC50 hOT/hV1a ratio not determined due to very low agonist efficacy (<30% compared to AVP) at the hOT receptor)
CC[C@H](C)[C@@H]1NC(=O)[C@H](Cc2ccccc2)NC(=O)[C@@H](N)CSSC[C@@H](C(=O)N2CCC[C@H]2C(=O)N[C@@H](CCCN)C(=O)NCC(N)=O)NC(=O)[C@H](CC(N)=O)NC(=O)[C@H](CCC(=O)NC)NC1=O [Compound 19] (H-CFIE(NHMe)NCP[Orn]G-NH2; disulfide 1-6; N-terminus and C-terminus assumed)	+ (selective hV1a receptor agonist; EC50 hOT/hV1a ratio not determined due to very low agonist efficacy (<30% compared to AVP) at the hOT receptor)
CC[C@H](C)[C@@H]1NC(=O)[C@H](Cc2ccccc2)NC(=O)[C@@H](N)CSSC[C@@H](C(=O)N2CCC[C@H]2C(=O)N[C@@H](CCCNC)C(=O)NCC(N)=O)NC(=O)[C@H](CC(N)=O)NC(=O)[C@H](CC(N)=O)NC1=O [Compound 46] (H-CFINNCP[Orn(Me)]G-NH2; disulfide 1-6; N-terminus and C-terminus assumed)	+ (selective hV1a receptor agonist; EC50 hOT/hV1a ratio not determined due to very low agonist efficacy (<30% compared to AVP) at the hOT receptor)
CC[C@H](C)[C@@H]1NC(=O)[C@H](Cc2ccccc2)NC(=O)[C@@H](N)CSSC[C@@H](C(=O)N2CCC[C@H]2C(=O)N[C@@H](CCN)C(=O)NCC(N)=O)NC(=O)[C@H](CC(N)=O)NC(=O)[C@H](CC(=O)NC)NC1=O [Compound 31] (H-CFID(NHMe)NCP[Dab]G-NH2; disulfide 1-6; N-terminus and C-terminus assumed)	+ (selective hV1a receptor agonist; EC50 hOT/hV1a ratio not determined due to very low agonist efficacy (<30% compared to AVP) at the hOT receptor)
